Consider one compound from publication PMC12693327, “SERAAK2 as a Serotonin Receptor Ligand: Structural and Pharmacological In Vitro and In Vivo Evaluation” (Molecules, 2025).

Series [1] concerns mice. Nature of the series: Elevated plus maze (EPM) test. The format is in vivo. On the procedure:
(§1) The investigated compound (SER2AAK2) was bought from Enamine (purity over 95%) and in all tests was administered intraperitoneally (i.p.), spread in a drop of Tween 80, and diluted with an aqueous solution of 0.5% methylcellulose (tylose) and injected 60 min before the tests in a volume of 10 mL/kg. Control groups received tylose injections of the same volume and via the same route of administration.
Anxiety behaviors were measured using the EPM test according to the Lister method. The apparatus consisted of four black-painted arms arranged in a plus-shaped configuration with a central platform (5 × 5 cm). Two opposing arms were open (30 × 5 cm), while the other two were enclosed (30 × 5 × 15 cm). The maze was elevated 38.5 cm above the floor and illuminated with dim, diffuse red light. Experiments were conducted in a quiet, dark room. […] The following parameters were recorded: time spent in the open arms, number of entries into the open arms, and total number of entries into both types of arms.

For series [2], the system named is mice. In words: Passive avoidance (PA) task, memory consolidation. In kind it is in vivo. The conditions noted are these: 7.5 mg/kg, retention phase, vs vehicle control. Here is the method:
as §1
The passive avoidance (PA) task measures a long-term memory, as it was reported by Venault et al.. The PA apparatus consists of a two-compartment acrylic box, one illuminated with fluorescent light (8 W) (10 cm × 13 cm × 15 cm) and another darkened (25 cm × 20 cm × 15 cm), connected by a guillotine door. Entrance of the animal to the darkened box was punished by an electric foot shock (0.15 mA for 2 s). The PA procedure was previously described. In particular, on the first day of the experiment [i.e., training (pre-test)], mice were placed individually into the illuminated compartment and allowed to explore this box. […] The latency time for entering the darkened compartment was recorded (TL1). […] The results were expressed as the latency index (LI), calculated by the following formula: TL1−TL2/TL1 where TL1 is the time needed to move to the dark compartment during a training session and TL2 is the time needed to re-enter the dark compartment, measured 24 h after TL1 (retention).

Series [3] addresses serotonin 5-HT2A receptor. The arrangement: method as in PMID 38619283. The conditions noted are these: cited from earlier work.
The next series concerns HepG2 cells. Nature of the series: MTS cytotoxicity assay in HepG2 cells. The format is cell-based, human. To be noted: 72 h. Here is the method:
The cytotoxic potential of SERAAK2 was evaluated in two human-derived cell lines chosen for their physiological relevance: HepG2 (hepatocellular carcinoma) and SH-SY5Y (neuroblastoma). […] It is particularly noteworthy that the use of the SERAAK2 compound at a concentration of 30 µM reduces the number of viable cells below the level of the positive control (doxorubicin) at the same concentration (Table 3). […] Under the experimental conditions used, after 72 h of incubation, a fraction of doxorubicin-treated cells remains metabolically active and generates a low signal in the MTS assay. The enhanced signal reduction observed in the MTS assay for the tested compound, compared to doxorubicin, indicates strong cytotoxic activity leading to necrosis of the entire cell population.
An assessment of the cytotoxic potential of SERAAK2 was carried out utilizing the colorimetric MTS assay. This investigation was executed on both HepG2 and SH-SY5Y cell lines, adhering to an identical procedure. The cell lines, sourced from the American Type Culture Collection (Manassas, VA, USA), were cultured under standard conditions (5% CO2, 37 °C) in DMEM/F12 medium (#31330-038, ThermoFisher Scientific, Waltham, MA, USA). The medium was supplemented with 10% Fetal Bovine Serum (FBS, #A5256801, ThermoFisher Scientific) and a Penicillin–Streptomycin solution (#15140-122, ThermoFisher Scientific) until their use in the study. Cells within passage numbers 15 to 25 were plated in 96-well plates at a density of 5000 cells per well in 200 μL of medium and allowed to adhere during a 24 h incubation at 37 °C with 5% CO2. […] The plates were then subsequently returned to the 37 °C incubator, after which absorbance was recorded with a Spark microplate reader; this measurement occurred after 1 h for the HepG2 line and 3 h for the SH-SY5Y line. The ultimate cell viability percentage was determined by comparing results to the control wells, which represented 100% viability, and the wells treated with 10 μM doxorubicin, which were defined as 0% viability. […]

In another series the target is T1, CYP3A4 (Homo sapiens, UniProt P08684).
T1 construct: purchased Promega
T1 sequence (P08684 whole entry): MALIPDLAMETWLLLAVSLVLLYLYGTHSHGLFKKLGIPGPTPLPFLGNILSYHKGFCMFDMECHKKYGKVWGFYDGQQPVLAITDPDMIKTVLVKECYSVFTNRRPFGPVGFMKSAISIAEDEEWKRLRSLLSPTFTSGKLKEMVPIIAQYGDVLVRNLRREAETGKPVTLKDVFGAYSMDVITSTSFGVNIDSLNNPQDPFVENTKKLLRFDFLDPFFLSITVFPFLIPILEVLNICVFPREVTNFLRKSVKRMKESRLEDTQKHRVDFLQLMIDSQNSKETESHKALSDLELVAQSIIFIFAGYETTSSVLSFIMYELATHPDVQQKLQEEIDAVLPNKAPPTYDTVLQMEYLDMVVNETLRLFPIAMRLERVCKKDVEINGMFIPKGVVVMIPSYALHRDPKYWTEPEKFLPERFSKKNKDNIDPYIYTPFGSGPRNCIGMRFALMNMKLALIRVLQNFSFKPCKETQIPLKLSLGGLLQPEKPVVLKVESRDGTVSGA
In words: CYP3A4 luminescent luciferase-based assay (Glo kit). The format is in vitro ADME. The conditions noted are these: mean ± SEM, two experiments, n = 3 each, read-out: CYP3A4 Activity Inhibition, Evaluated at the Concentration of 10 µM [% of Inhibition ± SEM]. Here is the method:
The effect of SERAAK2 on the activity of the cytochrome P450 isoforms CYP3A4 and CYP2D6 was tested using commercial luminescence assays (Glo kits bought from Promega, Medison, WI, USA). The experiment was performed twice with triplicate samples, following the manufacturer’s guidelines and established procedures.

SMILES strings stand for the structures. Entries after “also recorded” stand apart in the source; their conditions may differ.

Consider `OC(CNCCc1c[nH]c2ccccc12)COc1ccc(Oc2ccccc2)cc1` (stereo not shown) [SERAAK2], for which the “Elevated plus maze (EPM), open arm time and entries” value in the series with mice [1] (7.5 mg/kg) was “↑ open arm time and entries (7.5 mg/kg)—anxiolytic effect”. Moreover, in the series with mice [1] (7.5 mg/kg i.p.), the “EPM total number of entries into both open and closed arms” value is reported as “remained unchanged”. In the series on mice [1] (7.5 mg/kg i.p., p < 0.01 vs control), the “EPM percentage of open arm entries” value is recorded as “significant increase”. Further, the “EPM percentage of time spent in the open arms” value with mice [1] (7.5 mg/kg i.p., p < 0.05 vs control) is listed as “significant increase”. In the series with mice [2], the “PA memory consolidation, latency index” value was “did not significantly change the latency index; also recorded: no effect on memory consolidation”. In addition, the Ki in series [3] was 422 ± 74 nM. Further, in the series on HepG2 cells (0.3 µM), the “cytotoxic effects in HepG2 cells” value is on record as “no cytotoxic effects”. The HepG2 cell viability in the series with HepG2 cells (3 µM) is given as 85 % of the control. Besides, the “Percentage Reduction in the Number of Viable HepG2 Cells [Mean ± SEM]” value with HepG2 cells (30 µM) is 104 ± 1%. Further, on CYP3A4, the inhibition at 10 µM is 0%.
